The nature of data set [1]: Extended pharmacokinetics of LaKe in rats (LaKe, lactate, BHB plasma levels). Type of data set: in vivo, SD rats. The procedure: Animals (SD rats, both male and female, 7–9 weeks) were individually housed from 24 h before dosing until the end of the study. Food was withdrawn the night before initiation of study; following food withdrawal, animals were maintained on glucose water containing 5% w/v glucose and 1% saline to suppress endogenous ketone production throughout the study. Food was returned 8 h post-test article dosing. Animals were monitored for distress or notable changes in behavior during the study. The animals were euthanized by CO2 inhalation 2 h after the last sample collection time point.
Blood collection was performed by jugular vein cannulation of each animal and divided into two parts. About 10–15 μL of blood was used for the analysis of glucose by glucometer measurement. About 0.20 mL of blood was collected into prechilled commercial EDTA-K2 tubes containing 5 μL of the esterase inhibitor (100 mM PMSF in ethanol, 40 mg/mL NaF and 120 mg/mL […] in water = 5:95(v/v). All blood samples were placed on wet ice until centrifugation.
At least 100 μL plasma was collected respectively and transferred into polypropylene tubes with 400 mM TTFA (2-thenoyltrifluoroacetone) in ethanol (plasma:stabilizer = 100:5 (v:v)). The final concentration of TTFA in the plasma sample from each time point was approximately 20 mM. The samples were snap frozen over dry ice and kept at −60 °C or lower until LC-MS/MS analysis for 3-hydroxybutyl 2-hydroxypropanoate (LaKe), lactate, and β-hydroxybutyrate (BHB).
Calibration curves were constructed by linear regression of the peak area of the pure calibrant samples versus the nominal analyte concentrations and based on eight points. The Lac-Phe concentrations in rat plasma samples were derived from their peak area with reference to the calibration curve.
Extended pharmacokinetics of LaKe in rats – Detailed protocols for LC-MS/MS analyses 3-hydroxybutyl 2-hydroxypropanoate (LaKe): […]
3-hydroxybutyl 2-hydroxypropanoate (LaKe) was detected by SRM. […]

Data set [2] in a line: In vitro stability in simulated intestinal fluid. It counts as in vitro ADME. The settings on record: simulated intestinal fluid (SIF) with pancreatin, intestinal enzymes (pancreatin), pH = 6.8. The method, then:
The in vitro stability of LaKe was evaluated following incubation in simulated gastric fluid (SGF), simulated intestinal fluid (SIF), fresh and frozen plasma (rats and humans, respectively), and the presence of hepatocytes (rats and humans) and liver microsomes (rats and humans). At the chosen time points, the mixtures were analyzed by LC-MS/MS to quantify the remaining LaKe and all assays included at least one control compound with known pharmacokinetic properties. […]
centrifuged at 4000 rpm, 4℃ for 20 min. 60 μL of supernatant was mixed with 180 μL of purified water for subsequent LC/MS/MS analysis.
LC-MS/MS Condition: ACQUITY UPLC BEH C18 1.7um 2.1 * 50mm Column (Part No.186002350). Mobile phase: A: 0.1% Formic Acid in Water; B: 0.1% Formic Acid in ACN.
Stability of LaKe in simulated intestinal fluid (SIF)
Preparation of SIF-solution: 0.136 g KH2PO4 and 0.064 g pancreatin was dissolved H2O to a total volume of solution 20 mL. The pH of the test solution was adjusted to 6.80 ± 0.05.
Procedure: 2 μL of a 10mg/ml working solution of LaKe in DMSO was spiked into 96-deep-well plates corresponding to timepoints T0, T60, T120, T360 and T1440. Experiments were performed in duplicate. 198 μL of SIF solution was then transferred to the individual wells (except T0) to reach 0.1mg/ml as the final test concentration for each time point (60, 120, 360, 1440 minutes). […]

The values below come from paper PMC11403612, “Preparation and Preclinical Characterization of a Simple Ester for Dual Exogenous Supply of Lactate and Beta-hydroxybutyrate” (Journal of Agricultural and Food Chemistry, 2024).

A word on the half-life: it is the time needed for the level to fall by half in the phase considered.

Bounds are passed on as bounds.

As for `CC(O)CCOC(=O)C(C)O` (stereo not shown) [LaKe, 3-hydroxybutyl 2-hydroxypropanoate], the concentration at 15 min in data set [1] (both sexes, SD, rat, plasma, oral, 1.3 g/kg, the lower dose, 15 min) was found to be 540 nM. In addition, in data set [1] (both sexes, SD, rat, plasma, oral, 1.3 g/kg, the lower dose, 30 min), the concentration at 30 min was found to be 260 nM. In addition, the “maximum average plasma level of LaKe” value in data set [1] (maximum dose of 12 g/kg) came to 5 µM. Further, the half-life at 0.1 mg/ml in data set [2] is less than 2 h.
